{"source": "patent US7358245B2", "about": "“Treatment of gastroesophageal reflux disease” (AstraZenca AB, priority 2001, dated 2008)", "test_system": "transient lower esophageal sphincter relaxations (TLESRs)", "test": "Screening for compounds active against TLESR (motility measurement in dogs)", "type": "in vivo, Adult Labrador retrievers (dog)", "settings": "vs five preceding control experiments for each dog", "experimental": "Adult Labrador retrievers of both genders, trained to stand in a Pavlov sling, are used. Mucosa-to-skin esophagostomies are formed and the dogs are allowed to recover completely before any experiments are done.\nIn brief, after fasting for approximately 17 h with free supply of water, a multilumen sleeve/sidehole assembly (Dentsleeve, Adelaide, South Australia) is introduced through the esophagostomy to measure gastric, lower esophageal sphincter (LES) and esophageal pressures. The assembly is perfused with water using a low-compliance manometric perfusion pump (Dentsleeve, Adelaide, South Australia). An air-perfused tube is passed in the oral direction to measure swallows, and an antimony electrode monitored pH, 3 cm above the LES. All signals are amplified and acquired on a personal computer at 10 Hz.\nWhen a baseline measurement free from fasting gastric/LES phase III motor activity has been obtained, placebo (0.9% NaCl) or test compound is administered intravenously (i.v., 0.5 ml/kg) in a foreleg vein. Ten min after i.v. administration, a nutrient meal (10% peptone, 5% D-glucose, 5% Intralipid, pH 3.0) is infused into the stomach through the central lumen of the assembly at 100 ml/min to a final volume of 30 ml/kg. Immediately following the meal, air is insufflated at 40 ml/min. The experimental time from start of nutrient infusion to end of air insufflation is 45 min. The procedure has been validated as a reliable means of triggering TLESRs.\nTLESRs is defined as a decrease in lower esophageal sphincter pressure (with reference to intragastric pressure) at a rate of >1 mmHg/s. The relaxation should not be preceded by a pharyngeal signal ≦2 s before its onset in which case the relaxation is classified as swallow-induced. The pressure difference between the LES and the stomach should be less than 2 mmHg, and the duration of the complete relaxation longer than 1 s.\nThe aminoalkylindole cannabinoid WIN 55,212-2, purchased from Tocris Cookson (Bristol, U.K.), was tested on Adult Labrador retrievers of both genders in accordance with the test model described above.\nInhibition of the number of TLESRs was calculated with regard to the five preceding control experiments for each dog, and the results as set out in Table 1 below were achieved.", "data": [{"compound": "COc1ccc2c(c1)c(CCN1CCOCC1)c(C)n2C(=O)c1cccc(Cl)c1Cl", "note": "[L-768,242, (2,3-dichloro-phenyl)-[5-methoxy-2-methyl-3-(2-morpholin-4-yl-ethyl)-indol-1-yl]-methanone]", "values": [{"measurement": "% INHIBITION ± SEM (N) of the number of TLESRs", "setting": "dose 0.3 μmol/kg i.v.", "value": "8 ± 21 (4) %"}, {"measurement": "% INHIBITION ± SEM (N) of the number of TLESRs", "setting": "dose 1 μmol/kg i.v.", "value": "44 ± 6 (5) %"}, {"measurement": "% INHIBITION ± SEM (N) of the number of TLESRs", "setting": "dose 5 μmol/kg i.v.", "value": "63 ± 5 (4) %"}, {"measurement": "% INHIBITION ± SEM (N) of the number of TLESRs", "setting": "dose 7 μmol/kg i.v.", "value": "76 ± 12 (3) %"}]}, {"compound": "Cc1c(C(=O)NN2CCCCC2)nn(-c2ccc(Cl)cc2Cl)c1-c1ccc(Cl)cc1", "note": "[SR141716A]", "values": [{"measurement": "% STIMULATION ± SEM (N) of the number of TLESRs", "setting": "dose 0.22 μmol/kg i.v.", "value": "43 ± 16 (6) %"}]}, {"compound": "Cc1c(C(=O)c2cccc3ccccc23)c2cccc3c2n1[C@H](CN1CCOCC1)CO3", "note": "[WIN 55,212-2, (2-methyl-3-morpholin-4-ylmethyl-3,4-dihydro-5-oxa-2a-aza-acenaphthylen-1-yl)-naphthalen-1-yl-methanone]", "values": [{"measurement": "% INHIBITION ± SEM (N) of the number of TLESRs", "setting": "dose 0.003 mg/kg i.v.", "value": "20 ± 18 (4) %"}, {"measurement": "% INHIBITION ± SEM (N) of the number of TLESRs", "setting": "dose 0.01 mg/kg i.v.", "value": "70 ± 10 (4) %"}, {"measurement": "% INHIBITION ± SEM (N) of the number of TLESRs", "setting": "dose 0.03 mg/kg i.v.", "value": "82 ± 1 (4) %"}]}]}
